# Laboratory results: PubChem BioAssay (NCI)
#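 96-well plates; 48 h exposure; 5 concentrations. Endpoints by linear interpolation between flanking doses. Not reached: highest tested concentration assigned. Here, GI50 denotes the concentration required for 50% inhibition of growth. TGI is the concentration that stops growth completely.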
# Experiments:
# Experiment in all cases: DTP human tumour cell line panel, 48 h
# U251 CNS = tested on: U251 CNS
# NCI-H23 lung = tested on: NCI-H23 lung
# EKVX NSCLC = tested on: EKVX NSCLC
# TK-10 renal = tested on: TK-10 renal
# PC-3 prostate = tested on: PC-3 prostate
# UACC-257 melanoma = tested on: UACC-257 melanoma
# T-47D breast = tested on: T-47D breast
# MDA-MB-468 breast = tested on: MDA-MB-468 breast
# BT-549 breast = tested on: BT-549 breast
# HS 578T breast = tested on: HS 578T breast
# HCT-15 colon = tested on: HCT-15 colon
# SK-MEL-5 melanoma = tested on: SK-MEL-5 melanoma
# K-562 leukemia = tested on: K-562 leukemia
# SF-268 CNS = tested on: SF-268 CNS
# HOP-62 NSCLC = tested on: HOP-62 NSCLC
# SK-MEL-28 melanoma = tested on: SK-MEL-28 melanoma
# IGROV1 ovarian = tested on: IGROV1 ovarian
# NCI-H522 lung = tested on: NCI-H522 lung
# A549 NSCLC = tested on: A549 NSCLC
# MDA-MB-435 = tested on: MDA-MB-435
# OVCAR-3 ovarian = tested on: OVCAR-3 ovarian
# UACC-62 melanoma = tested on: UACC-62 melanoma
# RXF 393 renal = tested on: RXF 393 renal
# OVCAR-5 ovarian = tested on: OVCAR-5 ovarian
# DU-145 prostate = tested on: DU-145 prostate
# 786-0 renal = tested on: 786-0 renal
# KM12 colon = tested on: KM12 colon
# SN12C renal = tested on: SN12C renal
# LOX IMVI melanoma = tested on: LOX IMVI melanoma
# A498 renal = tested on: A498 renal
# MALME-3M melanoma = tested on: MALME-3M melanoma
# HCT-116 colon = tested on: HCT-116 colon
# OVCAR-8 ovarian = tested on: OVCAR-8 ovarian
# SF-539 CNS = tested on: SF-539 CNS
# HCC-2998 colon = tested on: HCC-2998 colon
# SK-OV-3 ovarian = tested on: SK-OV-3 ovarian
# HOP-92 NSCLC = tested on: HOP-92 NSCLC
# NCI/ADR-RES ovarian = tested on: NCI/ADR-RES ovarian
# NCI-H226 lung = tested on: NCI-H226 lung
# COLO 205 colon = tested on: COLO 205 colon
# MCF7 breast = tested on: MCF7 breast
# HL-60(TB) leukemia = tested on: HL-60(TB) leukemia
# RPMI-8226 leukemia = tested on: RPMI-8226 leukemia
# M14 melanoma = tested on: M14 melanoma
# SF-295 CNS = tested on: SF-295 CNS
# SNB-75 CNS = tested on: SNB-75 CNS
# SK-MEL-2 melanoma = tested on: SK-MEL-2 melanoma
# MDA-MB-231 breast = tested on: MDA-MB-231 breast
# MOLT-4 leukemia = tested on: MOLT-4 leukemia
# NCI-H460 lung = tested on: NCI-H460 lung
# CAKI-1 renal = tested on: CAKI-1 renal
# ACHN renal = tested on: ACHN renal
# SR leukemia = tested on: SR leukemia
# SW-620 colon = tested on: SW-620 colon
# SNB-19 CNS = tested on: SNB-19 CNS
# HT29 colon = tested on: HT29 colon
# UO-31 renal = tested on: UO-31 renal
# OVCAR-4 ovarian = tested on: OVCAR-4 ovarian
# CCRF-CEM leukemia = tested on: CCRF-CEM leukemia
smiles,measurement,setting,value
Cc1ccc(C2CC(c3ccc(NC(=O)Nc4ccccc4)cc3)=NN2c2ccc(S(C)(=O)=O)cc2)cc1 (stereo not drawn),GI50,U251 CNS,4.36 µM
same,TGI,U251 CNS,17.1 µM
same,GI50,NCI-H23 lung,2.48 µM
same,TGI,NCI-H23 lung,8.48 µM
same,GI50,EKVX NSCLC,2.61 µM
same,TGI,EKVX NSCLC,11.1 µM
same,GI50,TK-10 renal,4.52 µM
same,TGI,TK-10 renal,17.1 µM
same,GI50,PC-3 prostate,2.82 µM
same,TGI,PC-3 prostate,11.8 µM
same,GI50,UACC-257 melanoma,6.15 µM
same,TGI,UACC-257 melanoma,22.6 µM
same,GI50,T-47D breast,3.02 µM
same,TGI,T-47D breast,11.1 µM
same,GI50,MDA-MB-468 breast,2.09 µM
same,TGI,MDA-MB-468 breast,5.66 µM
same,GI50,BT-549 breast,2.95 µM
same,TGI,BT-549 breast,7.93 µM
same,GI50,HS 578T breast,3.47 µM
same,TGI,HS 578T breast,17.2 µM
same,GI50,HCT-15 colon,1.95 µM
same,TGI,HCT-15 colon,5.4 µM
same,GI50,SK-MEL-5 melanoma,2.34 µM
same,TGI,SK-MEL-5 melanoma,6.28 µM
same,GI50,K-562 leukemia,3.14 µM
same,TGI,K-562 leukemia,70.9 µM
same,GI50,SF-268 CNS,3.82 µM
same,TGI,SF-268 CNS,15.5 µM
same,GI50,HOP-62 NSCLC,6.94 µM
same,TGI,HOP-62 NSCLC,21.4 µM
same,GI50,SK-MEL-28 melanoma,3.39 µM
same,TGI,SK-MEL-28 melanoma,11.9 µM
same,GI50,IGROV1 ovarian,2.91 µM
same,TGI,IGROV1 ovarian,11 µM
same,GI50,NCI-H522 lung,2.24 µM
same,TGI,NCI-H522 lung,10.6 µM
same,GI50,A549 NSCLC,3.46 µM
same,TGI,A549 NSCLC,16 µM
same,GI50,MDA-MB-435,2.94 µM
same,TGI,MDA-MB-435,12.3 µM
same,GI50,OVCAR-3 ovarian,1.93 µM
same,TGI,OVCAR-3 ovarian,4.47 µM
same,GI50,UACC-62 melanoma,3.19 µM
same,TGI,UACC-62 melanoma,13.4 µM
same,GI50,RXF 393 renal,1.84 µM
same,TGI,RXF 393 renal,5.08 µM
same,GI50,OVCAR-5 ovarian,2.27 µM
same,TGI,OVCAR-5 ovarian,6.78 µM
same,GI50,DU-145 prostate,4.43 µM
same,TGI,DU-145 prostate,18.2 µM
same,GI50,786-0 renal,2.24 µM
same,TGI,786-0 renal,6.1 µM
same,GI50,KM12 colon,3.15 µM
same,TGI,KM12 colon,10.7 µM
same,GI50,SN12C renal,1.69 µM
same,TGI,SN12C renal,3.16 µM
same,GI50,LOX IMVI melanoma,1.68 µM
same,TGI,LOX IMVI melanoma,3.07 µM
same,GI50,A498 renal,2.73 µM
same,TGI,A498 renal,6.97 µM
same,GI50,MALME-3M melanoma,2.47 µM
same,TGI,MALME-3M melanoma,8.74 µM
same,GI50,HCT-116 colon,1.72 µM
same,TGI,HCT-116 colon,3.56 µM
same,GI50,OVCAR-8 ovarian,4.83 µM
same,TGI,OVCAR-8 ovarian,21.7 µM
same,GI50,SF-539 CNS,2.28 µM
same,TGI,SF-539 CNS,6.05 µM
same,GI50,HCC-2998 colon,2.38 µM
same,TGI,HCC-2998 colon,6.27 µM
same,GI50,SK-OV-3 ovarian,7.96 µM
same,TGI,SK-OV-3 ovarian,21.2 µM
same,GI50,HOP-92 NSCLC,2.35 µM
same,TGI,HOP-92 NSCLC,8.22 µM
same,GI50,NCI/ADR-RES ovarian,2.5 µM
same,TGI,NCI/ADR-RES ovarian,7.74 µM
same,GI50,NCI-H226 lung,2.41 µM
same,TGI,NCI-H226 lung,7.04 µM
same,GI50,COLO 205 colon,1.93 µM
same,TGI,COLO 205 colon,3.65 µM
same,GI50,MCF7 breast,2.11 µM
same,TGI,MCF7 breast,6.79 µM
same,GI50,HL-60(TB) leukemia,2.09 µM
same,TGI,HL-60(TB) leukemia,6.11 µM
same,GI50,RPMI-8226 leukemia,2.48 µM
same,TGI,RPMI-8226 leukemia,7.98 µM
same,GI50,M14 melanoma,3.28 µM
same,TGI,M14 melanoma,12.6 µM
same,GI50,SF-295 CNS,2.58 µM
same,TGI,SF-295 CNS,8.35 µM
same,GI50,SNB-75 CNS,4.44 µM
same,TGI,SNB-75 CNS,19.3 µM
same,GI50,SK-MEL-2 melanoma,7.39 µM
same,TGI,SK-MEL-2 melanoma,22.3 µM
same,GI50,MDA-MB-231 breast,2.11 µM
same,TGI,MDA-MB-231 breast,4.94 µM
same,GI50,MOLT-4 leukemia,2.42 µM
same,TGI,MOLT-4 leukemia,8.14 µM
same,GI50,NCI-H460 lung,2.2 µM
same,TGI,NCI-H460 lung,5.6 µM
same,GI50,CAKI-1 renal,3.34 µM
same,TGI,CAKI-1 renal,11.6 µM
same,GI50,ACHN renal,2.99 µM
same,TGI,ACHN renal,9.59 µM
same,GI50,SR leukemia,2.59 µM
same,TGI,SR leukemia,10.7 µM
same,GI50,SW-620 colon,2.6 µM
same,TGI,SW-620 colon,12.1 µM
same,GI50,SNB-19 CNS,5.53 µM
same,TGI,SNB-19 CNS,18.4 µM
same,GI50,HT29 colon,1.91 µM
same,TGI,HT29 colon,4.97 µM
same,GI50,UO-31 renal,2.58 µM
same,TGI,UO-31 renal,11.2 µM
same,GI50,OVCAR-4 ovarian,2.84 µM
same,TGI,OVCAR-4 ovarian,11.3 µM
same,GI50,CCRF-CEM leukemia,2.53 µM
same,TGI,CCRF-CEM leukemia,6.98 µM
